From patent US4185089A, “Immunological adjuvant constituted by the p-amino-phenyl derivative of N-acetyl-muramyl-L-alanyl-D-isoglutamine” (Agence Nationale de Valorisation de la Recherche (ANVAR), priority 1976, dated 1980)
“And” between values parts separate entries of the source, which are not always exact repeats. Equal entries are not always repeated.

Tests used:
[1] = system: female Hartley guinea pigs; assay: Adjuvant test in oily phase: specific serum antibody level to ovalbumin; assay type: in vivo, guinea pig
Procedure: In these tests, the growth of the specific antibody level of a given antigen when the latter is injected, with or without the adjuvant compound according to the invention, in the midst of a water and oil emulsion was followed.
(§1) The tests were carried out on female Hartley guinea pigs of 350 g. The administration was done by intradermal injection in the plantar pad of each of the rear paws. The ovalbumin (constituting the antigen) in the dose of 0.5 mg was prepared in 0.1 ml of an emulsion of saline isotonic solution, in an oily phase constituted either by the Freund incomplete adjuvant (FIA), or by the Freund complete adjuvant (FCA) formed by the FIA to which is added 0.1 mg of whole cells of Mycobacterium smegmatis. The compound according to the invention was administered in the dose of 0.1 mg added in the emulsion containing the FIA.
Twenty one days after the injection, the animals were bled. On the serum collected, the specific antibody content of the ovalbumin was measured by precipitation of the antibody-antigen complex in the equivalence zone. The amount of protein nitrogen contained in this precipitate was evaluated according to the Folin method. These values express the amounts, in micrograms, of nitrogen precipitable by the antigen, per ml of serum.

[2] = system: female Hartley guinea pigs; assay: Adjuvant test in oily phase: delayed hypersensitivity cutaneous test to ovalbumin; assay type: in vivo, guinea pig
Procedure: as §1
Eighteen days after this immunisation, possible reactions of delayed hypersensibility to the antigen were sought by injecting by the intradermal route 0.005 mg of ovalbumin into the side of the animals, and the reaction at the point of injection was observed 48 hours later. The diameter in mm of the thus provoked reaction was measured.

mice = assay: Toxicity by intravenous injection in mice; assay type: in vivo; settings: mice aged two months
Excerpt: The toxicity of the product according to the invention was studied by intravenous injection in mice aged two months.

rabbits = assay: Pyrogenicity on rabbits (French Pharmacopea protocol); assay type: in vivo; settings: for Rise in temperature °C.: individual animals (batch of three), listed as product according to the invention
Procedure: The pyrogenic effect of the product according to the invention on rabbits was studied, following the protocol of the French Pharmacopea, 9e edition, II-235. Each test was carried out on a batch of three rabbits. The administration was first done by the subcutaneous route, then by the intravenous route. The results of these tests, that is to say the increase in temperature in the treated animals, were as follows: […]

SMILES: CC(=O)NC1C(Oc2ccc(N)cc2)OC(CO)C(O)C1O[C@H](C)C(=O)N[C@@H](C)C(=O)N[C@H](CCC(=O)O)C(N)=O (stereo partly drawn) [p-amino-phenyl-Mur-NAc-L-Ala-D-iso-Gln, 2-(p-amino-phenyl-2-acetamido-2-deoxy-3-O-D-glucopyranosyl)-D-propionyl-L-alanyl-D-isoglutamine]
- Effect on level of antibodies to the administered antigen (in words) ([1]; administered in oily emulsion): distinctly facilitates the increase in the level of antibodies
- Seric antibodies (nitrogen precipitable by the antigen per ml of serum) ([1]; guinea pigs, ovalbumin 0.5 mg intradermal in water-in-oil emulsion, adjuvant 100 μg, serum 21 days after injection, average values): 3500 µg/mL
- Delayed-type hypersensitivity reaction to the antigen (in words) ([2]; administered in oily emulsion): induces a hypersensitivity reaction of the delayed type
- Cutaneous test diameter in mm ([2]; guinea pigs, challenge 0.005 mg ovalbumin intradermal 18 days after immunisation, read 48 hours later, adjuvant 100 μg): 19.5±4.5 mm
- lethal dose (LD50) (mice): very much higher than that of the dosage at which the product manifests its adjuvant properties
- Pyrogenicity (in words) (rabbits; doses where adjuvant properties are manifested): apyrogenic
- Rise in temperature °C. (rabbits; intravenous, 1.0 mg/kg): 0 °C and 0.4 °C and 0.6 °C
- Rise in temperature °C. (rabbits; sub-cutaneous, 0.100 mg/kg, 0.1 mg/kg): 0 °C (2×) and 0.1 °C
- Rise in temperature °C. (rabbits; sub-cutaneous, 0.500 mg/kg, 0.5 mg/kg): 0 °C and 0.2 °C and 0.1 °C
